Data from US11590116B2 (THERAVANCE BIOPHARMA R&D IP, LLC, priority 2019, dated 2023).

Tests used:
[1] = system: TGF-β-stimulated SMAD3 phosphorylation in BEAS-2B cells; assay: Cellular ALK5 potency assay, inhibition of TGF-β stimulated pSMAD3 formation in BEAS-2B cells; type: cell-based; conditions: Homo sapiens; inhibition of TGF-β stimulated pSMAD3 formation, BEAS-2B cells; read-out: BEAS2B pIC50 (converted)
In short: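 BEAS-2B human lung epithelial cells pre-treated 1 h at 37° C with compound in HBSS/25 mM HEPES/1% BSA, then stimulated 30 min with 10 ng/mL TGF-β (final). Lysates assayed for pSMAD3 by AlphaLISA; pIC50 from dose-dependent change versus stimulated untreated cells.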

[2] = target: T1, recombinant human ALK5 (TGF-βR1) protein (Homo sapiens, UniProt P36897); assay: Biochemical ALK5 (TGF-βR1) assay to measure pKi (LANCE Ultra ULight kinase assay); conditions: apparent pKi from pIC50 by Cheng-Prusoff, read-out: ALK5 pKi (converted)
T1 construct: purchased Life Technologies PR9075A
T1 sequence (P36897 34-503): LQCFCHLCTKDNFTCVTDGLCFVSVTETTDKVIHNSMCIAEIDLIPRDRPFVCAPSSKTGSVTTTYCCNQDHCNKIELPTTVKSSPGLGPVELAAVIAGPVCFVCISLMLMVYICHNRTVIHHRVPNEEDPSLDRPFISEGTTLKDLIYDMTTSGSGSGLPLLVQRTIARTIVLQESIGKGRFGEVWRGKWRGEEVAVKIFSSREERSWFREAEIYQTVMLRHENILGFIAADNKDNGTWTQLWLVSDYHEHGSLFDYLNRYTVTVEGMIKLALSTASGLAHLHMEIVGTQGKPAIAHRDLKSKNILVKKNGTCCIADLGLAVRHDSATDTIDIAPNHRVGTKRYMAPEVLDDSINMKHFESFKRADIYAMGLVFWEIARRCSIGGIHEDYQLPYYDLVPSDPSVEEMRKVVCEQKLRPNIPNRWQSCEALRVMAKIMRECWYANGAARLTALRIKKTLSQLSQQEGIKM
In short: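 After a 60 min room-temperature preincubation of ALK5 with compound, phosphorylation proceeds 60 min at 37 °C on ATP addition (125 μM as 5× stock). Detection: Eu-labelled phospho-Thr1342 Topo IIα antibody in EDTA buffer, pH 7.0; emission 665 nm.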

Row | SMILES | IC50 [1] | Ki [2]
1 | CCOC(=O)CCc1ccnc2ccc(-c3c[nH]nc3-c3cccc(C)n3)nc12 [Compound 814, ethyl 3-[6-[3-(6-methyl-2-pyridyl)-1H-pyrazol-4-yl]-1,5-naphthyridin-4-yl]propanoate] | 25.1 to 158 nM | 0.0398 to 0.316 nM
2 | Cc1cccc(-c2n[nH]cc2-c2ccc3nccc(CNCCCN4CCOCC4)c3n2)n1 [Compound 815, N-[[6-[3-(6-methyl-2-pyridyl)-1H-pyrazol-4-yl]-1,5-naphthyridin-4-yl]methyl]-3-morpholino-propan-1-amine] | 25.1 to 158 nM | 0.0398 to 0.316 nM
3 | Cc1cccc(-c2n[nH]cc2-c2ccc3nccc(CNCCN4CCOCC4)c3n2)n1 [Compound 816, N-[[6-[3-(6-methyl-2-pyridyl)-1H-pyrazol-4-yl]-1,5-naphthyridin-4-yl]methyl]-2-morpholino-ethanamine] | 25.1 to 158 nM | 0.0398 to 0.316 nM
4 | COC(=O)c1coc(-c2ccnc3ccc(-c4c[nH]nc4-c4cccc(C)n4)nc23)n1 [Compound 817, methyl 2-[6-[3-(6-methyl-2-pyridyl)-1H-pyrazol-4-yl]-1,5-naphthyridin-4-yl]oxazole-4-carboxylate] | 200 to 1260 nM | 0.398 to 3.16 nM
5 | CNC(=O)c1ccnc2ccc(-c3c[nH]nc3-c3cccc(C)n3)nc12 [Compound 818, N-methyl-6-[5-(6-methyl-2-pyridyl)-1H-pyrazol-4-yl]-1,5-naphthyridine-4-carboxamide] | 25.1 to 158 nM | 0.0398 to 0.316 nM
6 | Cc1cccc(-c2n[nH]cc2-c2ccc3nccc(CNCCCN4CCN(C(C)C)CC4)c3n2)n1 [Compound 819, 3-(4-isopropylpiperazin-1-yl)-N-[[6-[3-(6-methyl-2-pyridyl)-1H-pyrazol-4-yl]-1,5-naphthyridin-4-yl]methyl]propan-1-amine] | 25.1 to 158 nM | 0.0398 to 0.316 nM
7 | Cc1cccc(-c2n[nH]cc2-c2ccc3nccc(CNCCN4CCN(C(C)C)CC4)c3n2)n1 [Compound 820, 2-(4-isopropylpiperazin-1-yl)-N-[[6-[3-(6-methyl-2-pyridyl)-1H-pyrazol-4-yl]-1,5-naphthyridin-4-yl]methyl]ethanamine] | 25.1 to 158 nM | 0.0398 to 0.316 nM
8 | CCOC(=O)CN1CCN(Cc2ccnc3ccc(-c4c[nH]nc4-c4cccc(C)n4)nc23)CC1 [Compound 821, ethyl 2-[4-[[6-[3-(6-methyl-2-pyridyl)-1H-pyrazol-4-yl]-1,5-naphthyridin-4-yl]methyl]piperazin-1-yl]acetate] | 25.1 to 158 nM | 0.398 to 3.16 nM
9 | Cc1cccc(-c2n[nH]cc2-c2ccc3nccc(CN4CCN(CC(=O)O)CC4)c3n2)n1 [Compound 822, 2-[4-[[6-[3-(6-methyl-2-pyridyl)-1H-pyrazol-4-yl]-1,5-naphthyridin-4-yl]methyl]piperazin-1-yl]acetic acid] | 25.1 to 158 nM | 0.398 to 3.16 nM
10 | Cc1cccc(-c2n[nH]cc2-c2ccc3nccc(NCCN4CCOCC4)c3n2)n1 [Compound 823, 6-[3-(6-methyl-2-pyridyl)-1H-pyrazol-4-yl]-N-(2-morpholinoethyl)-1,5-naphthyridin-4-amine] | 200 to 1260 nM | 0.398 to 3.16 nM
11 | Cc1cccc(-c2n[nH]cc2-c2ccc3nccc(-c4cnco4)c3n2)n1 [Compound 824, 5-[6-[3-(6-methyl-2-pyridyl)-1H-pyrazol-4-yl]-1,5-naphthyridin-4-yl]oxazole] | < 20 nM | 0.0398 to 0.316 nM
12 | Cc1cccc(-c2n[nH]cc2-c2ccc3nccc(NCC(=O)N4CCOCC4)c3n2)n1 [Compound 825, 2-[[6-[3-(6-methyl-2-pyridyl)-1H-pyrazol-4-yl]-1,5-naphthyridin-4-yl]amino]-1-morpholino-ethanone] | 25.1 to 158 nM | 0.398 to 3.16 nM
13 | Cc1cccc(-c2n[nH]cc2-c2ccc3nccc(C(=O)OCCCN4CCOCC4)c3n2)n1 [Compound 826, 3-morpholinopropyl 6-[3-(6-methyl-2-pyridyl)-1H-pyrazol-4-yl]-1,5-naphthyridine-4-carboxylate] | 25.1 to 158 nM | 0.398 to 3.16 nM
14 | Cc1cccc(-c2n[nH]cc2-c2ccc3nccc(C(=O)OCCN4CCOCC4)c3n2)n1 [Compound 827, 2-morpholinoethyl 6-[3-(6-methyl-2-pyridyl)-1H-pyrazol-4-yl]-1,5-naphthyridine-4-carboxylate] | 25.1 to 158 nM | 0.398 to 3.16 nM
15 | Cc1cccc(-c2n[nH]cc2-c2ccc3nccc(CN(C)CCN4CCOCC4)c3n2)n1 [Compound 828, N-methyl-N-[[6-[3-(6-methyl-2-pyridyl)-1H-pyrazol-4-yl]-1,5-naphthyridin-4-yl]methyl]-2-morpholino-ethanamine] | 25.1 to 158 nM | 3.98 to 31.6 nM
16 | CNCc1ccnc2ccc(-c3c[nH]nc3-c3cccc(C)n3)nc12 [Compound 829, N-methyl-1-[6-[3-(6-methyl-2-pyridyl)-1H-pyrazol-4-yl]-1,5-naphthyridin-4-yl]methanamine] | 25.1 to 158 nM | 0.398 to 3.16 nM
17 | Cc1cccc(-c2n[nH]cc2-c2ccc3nccc(CN(C)C)c3n2)n1 [Compound 830, N,N-dimethyl-1-[6-[3-(6-methyl-2-pyridyl)-1H-pyrazol-4-yl]-1,5-naphthyridin-4-yl]methanamine] | 25.1 to 158 nM | 3.98 to 31.6 nM
18 | Cc1cccc(-c2n[nH]cc2-c2ccc3nccc(N(C)CCN4CCOCC4)c3n2)n1 [Compound 831, N-methyl-6-[3-(6-methyl-2-pyridyl)-1H-pyrazol-4-yl]-N-(2-morpholinoethyl)-1,5-naphthyridin-4-amine] | 200 to 1260 nM | 0.0398 to 0.316 nM
19 | Cc1cccc(-c2n[nH]cc2-c2ccc3nccc(-c4cnoc4)c3n2)n1 [Compound 832, 4-[6-[3-(6-methyl-2-pyridyl)-1H-pyrazol-4-yl]-1,5-naphthyridin-4-yl]isoxazole] | 25.1 to 158 nM | 0.0398 to 0.316 nM
20 | Cc1cccc(-c2n[nH]cc2-c2ccc3nccc(-c4cnn(CCN5CCOCC5)c4)c3n2)n1 [Compound 833, 4-[2-[4-[6-[3-(6-methyl-2-pyridyl)-1H-pyrazol-4-yl]-1,5-naphthyridin-4-yl]pyrazol-1-yl]ethyl]morpholine] | 25.1 to 158 nM | 0.0398 to 0.316 nM
21 | Cc1cccc(-c2n[nH]cc2-c2ccc3nccc(-c4cn[nH]c4)c3n2)n1 [Compound 834, 2-[3-(6-methyl-2-pyridyl)-1H-pyrazol-4-yl]-8-(1H-pyrazol-4-yl)-1,5-naphthyridine] | < 20 nM | 0.0398 to 0.316 nM
22 | Cc1cccc(-c2n[nH]cc2-c2ccc3nccc(N)c3n2)n1 [Compound 835, 6-[3-(6-methyl-2-pyridyl)-1H-pyrazol-4-yl]-1,5-naphthyridin-4-amine] | 25.1 to 158 nM | 0.398 to 3.16 nM
23 | Cc1cccc(-c2n[nH]cc2-c2ccc3nccc(N(C)CC(=O)N4CCOCC4)c3n2)n1 [Compound 836, 2-[methyl-[6-[3-(6-methyl-2-pyridyl)-1H-pyrazol-4-yl]-1,5-naphthyridin-4-yl]amino]-1-morpholino-ethanone] | 200 to 1260 nM | 3.98 to 31.6 nM
24 | Cc1cccc(-c2n[nH]cc2-c2ccc3nccc(N(C)C)c3n2)n1 [Compound 837, N,N-dimethyl-6-[3-(6-methyl-2-pyridyl)-1H-pyrazol-4-yl]-1,5-naphthyridin-4-amine] | 25.1 to 158 nM | 0.0398 to 0.316 nM
25 | CNc1ccnc2ccc(-c3c[nH]nc3-c3cccc(C)n3)nc12 [Compound 838, N-methyl-6-[3-(6-methyl-2-pyridyl)-1H-pyrazol-4-yl]-1,5-naphthyridin-4-amine] | 25.1 to 158 nM | 0.398 to 3.16 nM
26 | Cc1cccc(-c2n[nH]cc2-c2ccc3nccc(NC(=O)CN4CCN(C(C)C)CC4)c3n2)n1 [Compound 839, 2-(4-isopropylpiperazin-1-yl)-N-[6-[3-(6-methyl-2-pyridyl)-1H-pyrazol-4-yl]-1,5-naphthyridin-4-yl]acetamide] | 25.1 to 158 nM | 0.398 to 3.16 nM
27 | Cc1cccc(-c2n[nH]cc2-c2ccc3nccc(NC(=O)CN4CCOCC4)c3n2)n1 [Compound 840, N-[6-[3-(6-methyl-2-pyridyl)-1H-pyrazol-4-yl]-1,5-naphthyridin-4-yl]-2-morpholino-acetamide] | 25.1 to 158 nM | 0.0398 to 0.316 nM
28 | Cc1cccc(-c2n[nH]cc2-c2ccc3nccc(NC(=O)CCN4CCOCC4)c3n2)n1 [Compound 841, N-[6-[3-(6-methyl-2-pyridyl)-1H-pyrazol-4-yl]-1,5-naphthyridin-4-yl]-3-morpholino-propanamide] | 25.1 to 158 nM | 0.398 to 3.16 nM
29 | Cc1cccc(-c2n[nH]cc2-c2ccc3nccc(NC(=O)CCCN4CCOCC4)c3n2)n1 [Compound 842, N-[6-[3-(6-methyl-2-pyridyl)-1H-pyrazol-4-yl]-1,5-naphthyridin-4-yl]-4-morpholino-butanamide] | 25.1 to 158 nM | 0.398 to 3.16 nM
30 | Cc1cccc(-c2n[nH]cc2-c2ccc3nccc(NC(=O)CCN4CCN(C(C)C)CC4)c3n2)n1 [Compound 843, 3-(4-isopropylpiperazin-1-yl)-N-[6-[3-(6-methyl-2-pyridyl)-1H-pyrazol-4-yl]-1,5-naphthyridin-4-yl]propanamide] | 25.1 to 158 nM | 0.398 to 3.16 nM
